Results: article PMC11233931, “Remodeling tumor‐associated macrophage for anti‐cancer effects by rational design of irreversible inhibition of mitogen‐activated protein kinase‐activated protein kinase 2” (MedComm, 2024)

Tests used:
Test in all cases: Eurofins kinase selectivity profile against 380 other human recombinant kinases (Table S2)
Type in all cases: biochemical
[1] = target: T1, 380 human recombinant protein kinases (Homo sapiens, UniProt O75914); details: PAK3(h), read-out: Inhibition rate
T1 construct: purchased Eurofins (Celle Lévescault)
T1 sequence (O75914 whole entry): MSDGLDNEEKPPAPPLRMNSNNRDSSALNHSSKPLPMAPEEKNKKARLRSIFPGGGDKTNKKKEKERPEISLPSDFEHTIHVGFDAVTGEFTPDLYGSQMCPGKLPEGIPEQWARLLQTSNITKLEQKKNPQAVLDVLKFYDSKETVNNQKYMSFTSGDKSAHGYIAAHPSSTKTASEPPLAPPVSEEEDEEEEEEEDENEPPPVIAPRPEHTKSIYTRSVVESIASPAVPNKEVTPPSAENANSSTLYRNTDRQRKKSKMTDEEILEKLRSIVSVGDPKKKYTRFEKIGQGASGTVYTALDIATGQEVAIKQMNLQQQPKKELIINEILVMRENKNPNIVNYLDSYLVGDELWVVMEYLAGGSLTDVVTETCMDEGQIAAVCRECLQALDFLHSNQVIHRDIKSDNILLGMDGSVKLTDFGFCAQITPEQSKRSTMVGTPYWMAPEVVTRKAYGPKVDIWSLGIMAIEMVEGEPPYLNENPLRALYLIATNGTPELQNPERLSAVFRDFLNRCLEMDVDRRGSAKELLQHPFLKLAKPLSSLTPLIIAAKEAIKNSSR
Procedure, shortened: (§1)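 Values come from a contract kinase-profiling service that tested the compound at multiple concentrations across 380 recombinant human kinases, as an off-target check against the MK2 activity.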

[2] = target: T2, 380 human recombinant protein kinases (Homo sapiens, UniProt Q04759); details: PKCθ(h), read-out: Inhibition rate
T2 construct: purchased Eurofins (Celle Lévescault)
T2 sequence (Q04759 whole entry): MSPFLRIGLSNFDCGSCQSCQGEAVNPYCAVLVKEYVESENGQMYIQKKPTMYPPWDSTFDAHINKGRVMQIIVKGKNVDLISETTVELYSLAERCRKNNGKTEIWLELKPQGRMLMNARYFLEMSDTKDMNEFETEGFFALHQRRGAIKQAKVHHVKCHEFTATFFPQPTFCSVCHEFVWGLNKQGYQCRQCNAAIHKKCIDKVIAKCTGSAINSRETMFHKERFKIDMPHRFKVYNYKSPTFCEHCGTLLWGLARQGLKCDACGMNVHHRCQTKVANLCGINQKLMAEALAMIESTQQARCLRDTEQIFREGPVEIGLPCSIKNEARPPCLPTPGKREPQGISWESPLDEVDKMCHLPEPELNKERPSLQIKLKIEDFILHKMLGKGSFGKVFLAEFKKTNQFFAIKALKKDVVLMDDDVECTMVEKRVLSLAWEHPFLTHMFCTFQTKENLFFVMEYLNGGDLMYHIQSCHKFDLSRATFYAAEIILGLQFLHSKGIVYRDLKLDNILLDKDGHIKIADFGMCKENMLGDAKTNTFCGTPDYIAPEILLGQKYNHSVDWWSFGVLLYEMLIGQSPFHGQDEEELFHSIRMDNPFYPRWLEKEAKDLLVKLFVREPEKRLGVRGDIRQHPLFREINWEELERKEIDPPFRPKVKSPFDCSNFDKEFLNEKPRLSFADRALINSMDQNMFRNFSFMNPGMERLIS
Procedure, shortened: as §1

[3] = target: T3, 380 human recombinant protein kinases (Homo sapiens, UniProt Q16620); details: TrkB(h), read-out: Inhibition rate (%)
T3 construct: purchased Eurofins (Celle Lévescault)
T3 sequence (Q16620 32-822): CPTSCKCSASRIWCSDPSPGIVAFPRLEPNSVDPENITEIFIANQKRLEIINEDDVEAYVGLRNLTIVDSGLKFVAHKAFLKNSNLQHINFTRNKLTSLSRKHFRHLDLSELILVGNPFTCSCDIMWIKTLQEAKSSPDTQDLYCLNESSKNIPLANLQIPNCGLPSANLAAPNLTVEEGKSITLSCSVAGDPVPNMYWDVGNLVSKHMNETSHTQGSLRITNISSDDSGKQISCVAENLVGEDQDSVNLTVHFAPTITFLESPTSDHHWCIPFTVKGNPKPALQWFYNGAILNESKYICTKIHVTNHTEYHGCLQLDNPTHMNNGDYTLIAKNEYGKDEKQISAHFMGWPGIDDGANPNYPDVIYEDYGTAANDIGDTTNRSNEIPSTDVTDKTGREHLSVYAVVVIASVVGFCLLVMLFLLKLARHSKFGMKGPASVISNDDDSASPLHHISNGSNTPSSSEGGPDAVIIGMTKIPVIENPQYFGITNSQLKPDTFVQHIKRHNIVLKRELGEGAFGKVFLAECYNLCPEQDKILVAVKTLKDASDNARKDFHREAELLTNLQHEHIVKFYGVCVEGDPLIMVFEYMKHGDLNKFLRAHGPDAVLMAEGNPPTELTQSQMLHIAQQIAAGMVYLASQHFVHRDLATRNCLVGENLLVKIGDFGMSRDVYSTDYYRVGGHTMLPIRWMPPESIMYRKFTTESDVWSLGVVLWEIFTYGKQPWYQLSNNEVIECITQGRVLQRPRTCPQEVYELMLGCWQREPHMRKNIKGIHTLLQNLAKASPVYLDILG
Procedure, shortened: as §1

[4] = target: T4, 380 human recombinant protein kinases (Homo sapiens, UniProt P11309); details: Pim-1(h), read-out: Inhibition rate
T4 construct: purchased Eurofins (Celle Lévescault)
T4 sequence (P11309 whole entry): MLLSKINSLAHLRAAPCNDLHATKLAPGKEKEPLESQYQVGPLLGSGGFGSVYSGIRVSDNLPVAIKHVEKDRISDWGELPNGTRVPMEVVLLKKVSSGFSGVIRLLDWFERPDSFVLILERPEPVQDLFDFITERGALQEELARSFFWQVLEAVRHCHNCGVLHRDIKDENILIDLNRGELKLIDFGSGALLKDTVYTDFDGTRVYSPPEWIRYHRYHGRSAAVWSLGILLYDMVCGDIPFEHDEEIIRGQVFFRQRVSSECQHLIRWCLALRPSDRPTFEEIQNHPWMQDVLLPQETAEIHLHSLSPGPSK
Procedure, shortened: as §1

[5] = target: T5, 380 human recombinant protein kinases (Homo sapiens, UniProt P54762); details: EphB1(h), read-out: Inhibition rate
T5 construct: purchased Eurofins (Celle Lévescault)
T5 sequence (P54762 18-984): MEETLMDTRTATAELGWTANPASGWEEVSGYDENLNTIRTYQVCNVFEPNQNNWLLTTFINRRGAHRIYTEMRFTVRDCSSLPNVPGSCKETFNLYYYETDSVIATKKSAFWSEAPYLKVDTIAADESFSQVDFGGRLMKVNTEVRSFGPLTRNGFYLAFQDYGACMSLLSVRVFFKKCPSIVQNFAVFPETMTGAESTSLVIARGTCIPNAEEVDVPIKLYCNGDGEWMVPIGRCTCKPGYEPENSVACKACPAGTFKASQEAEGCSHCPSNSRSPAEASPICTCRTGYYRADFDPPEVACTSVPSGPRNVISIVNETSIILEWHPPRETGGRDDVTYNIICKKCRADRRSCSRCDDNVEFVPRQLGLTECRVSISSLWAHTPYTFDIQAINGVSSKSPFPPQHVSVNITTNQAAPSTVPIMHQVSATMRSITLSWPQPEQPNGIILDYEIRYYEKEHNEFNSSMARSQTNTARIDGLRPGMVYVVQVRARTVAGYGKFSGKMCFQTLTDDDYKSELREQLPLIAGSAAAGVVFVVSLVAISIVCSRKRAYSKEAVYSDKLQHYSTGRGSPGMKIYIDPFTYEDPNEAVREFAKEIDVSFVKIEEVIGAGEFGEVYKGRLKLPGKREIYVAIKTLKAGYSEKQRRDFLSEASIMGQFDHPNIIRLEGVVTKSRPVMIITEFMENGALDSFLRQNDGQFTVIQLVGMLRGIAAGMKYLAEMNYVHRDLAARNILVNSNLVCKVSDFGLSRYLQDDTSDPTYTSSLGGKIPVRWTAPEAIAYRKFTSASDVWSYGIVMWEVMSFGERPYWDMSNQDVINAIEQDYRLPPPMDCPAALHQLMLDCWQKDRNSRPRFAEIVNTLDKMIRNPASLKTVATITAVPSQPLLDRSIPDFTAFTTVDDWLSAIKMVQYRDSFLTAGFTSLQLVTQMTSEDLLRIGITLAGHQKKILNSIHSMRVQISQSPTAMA
Procedure, shortened: as §1

[6] = target: T6, 380 human recombinant protein kinases (Homo sapiens, UniProt Q05397); details: FAK(h), read-out: Inhibition rate
T6 construct: purchased Eurofins (Celle Lévescault)
T6 sequence (Q05397 whole entry): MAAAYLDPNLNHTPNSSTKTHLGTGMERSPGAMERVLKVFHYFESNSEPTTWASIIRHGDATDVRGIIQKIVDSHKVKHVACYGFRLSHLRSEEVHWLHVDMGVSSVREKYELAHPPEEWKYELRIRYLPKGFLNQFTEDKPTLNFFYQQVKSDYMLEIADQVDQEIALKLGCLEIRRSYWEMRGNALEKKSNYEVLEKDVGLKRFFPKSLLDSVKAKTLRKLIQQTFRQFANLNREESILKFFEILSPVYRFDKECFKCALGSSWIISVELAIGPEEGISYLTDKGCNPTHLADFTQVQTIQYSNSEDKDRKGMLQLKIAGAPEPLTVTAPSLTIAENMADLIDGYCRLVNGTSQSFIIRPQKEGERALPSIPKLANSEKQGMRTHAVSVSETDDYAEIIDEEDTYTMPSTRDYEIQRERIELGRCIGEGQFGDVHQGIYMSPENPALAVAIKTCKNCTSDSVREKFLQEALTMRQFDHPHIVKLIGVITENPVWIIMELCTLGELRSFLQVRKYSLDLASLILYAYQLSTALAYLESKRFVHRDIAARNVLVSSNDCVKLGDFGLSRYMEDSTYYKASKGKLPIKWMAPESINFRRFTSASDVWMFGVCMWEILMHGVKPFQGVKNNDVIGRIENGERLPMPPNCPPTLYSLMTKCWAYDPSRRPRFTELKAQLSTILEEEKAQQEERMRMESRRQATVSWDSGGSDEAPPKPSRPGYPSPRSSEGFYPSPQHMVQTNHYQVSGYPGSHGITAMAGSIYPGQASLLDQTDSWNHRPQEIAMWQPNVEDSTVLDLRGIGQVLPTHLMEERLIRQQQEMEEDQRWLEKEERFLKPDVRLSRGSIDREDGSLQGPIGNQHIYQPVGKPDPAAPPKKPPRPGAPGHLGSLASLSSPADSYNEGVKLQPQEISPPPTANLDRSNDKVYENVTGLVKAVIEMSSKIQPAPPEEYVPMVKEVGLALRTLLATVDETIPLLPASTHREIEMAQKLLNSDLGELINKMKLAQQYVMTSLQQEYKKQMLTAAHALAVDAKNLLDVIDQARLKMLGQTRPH
Procedure, shortened: as §1

[7] = target: T7, 380 human recombinant protein kinases (Homo sapiens, UniProt P49674); details: CK1ε(h), read-out: Inhibition rate
T7 construct: purchased Eurofins (Celle Lévescault)
T7 sequence (P49674 whole entry): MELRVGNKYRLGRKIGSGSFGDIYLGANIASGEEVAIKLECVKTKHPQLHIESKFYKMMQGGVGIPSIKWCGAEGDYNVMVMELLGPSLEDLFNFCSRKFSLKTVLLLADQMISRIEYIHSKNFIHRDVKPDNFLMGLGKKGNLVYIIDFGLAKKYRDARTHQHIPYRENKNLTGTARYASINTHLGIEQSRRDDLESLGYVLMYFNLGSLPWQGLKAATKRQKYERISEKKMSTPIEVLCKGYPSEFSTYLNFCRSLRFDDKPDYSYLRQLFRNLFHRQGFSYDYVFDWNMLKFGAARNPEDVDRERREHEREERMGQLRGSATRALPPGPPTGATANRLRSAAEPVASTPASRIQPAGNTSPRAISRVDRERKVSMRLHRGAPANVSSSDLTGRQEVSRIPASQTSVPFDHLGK
Procedure, shortened: as §1

[8] = target: T8, 380 human recombinant protein kinases (Homo sapiens, UniProt P07947); details: Yes(h), read-out: Inhibition rate (%)
T8 construct: purchased Eurofins (Celle Lévescault)
T8 sequence (P07947 whole entry): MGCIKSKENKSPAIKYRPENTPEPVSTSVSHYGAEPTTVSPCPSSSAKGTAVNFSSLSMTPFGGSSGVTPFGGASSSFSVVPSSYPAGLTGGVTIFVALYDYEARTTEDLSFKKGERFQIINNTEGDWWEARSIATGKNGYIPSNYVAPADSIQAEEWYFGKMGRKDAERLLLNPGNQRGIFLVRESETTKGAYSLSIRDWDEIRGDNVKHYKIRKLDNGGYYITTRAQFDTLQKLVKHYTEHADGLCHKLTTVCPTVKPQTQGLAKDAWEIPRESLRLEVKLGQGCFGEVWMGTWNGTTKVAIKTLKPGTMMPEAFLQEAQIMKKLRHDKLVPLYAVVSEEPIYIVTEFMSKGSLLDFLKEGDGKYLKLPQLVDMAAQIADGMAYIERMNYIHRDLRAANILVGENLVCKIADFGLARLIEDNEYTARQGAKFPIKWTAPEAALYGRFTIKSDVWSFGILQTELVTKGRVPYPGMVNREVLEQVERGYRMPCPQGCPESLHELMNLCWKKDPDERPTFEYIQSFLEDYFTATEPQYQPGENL
Procedure, shortened: as §1

C=CC(=O)Nc1cc(-c2cc(-c3cc4c([nH]3)CCNC4=O)ccn2)ccc1OC(F)(F)F [compound 11]
inhibition at 0.01 µM ([1]; 10 nM): -4% | inhibition at 0.1 µM ([1]; 100 nM): 0% | inhibition at 1 µM ([1]; 1000 nM): -3% | inhibition at 0.01 µM ([2]; 10 nM): 6% | inhibition at 0.1 µM ([2]; 100 nM): 0% | inhibition at 1 µM ([2]; 1000 nM): 4% | inhibition at 0.01 µM ([3]; 10 nM): -6% | inhibition at 0.1 µM ([3]; 100 nM): -9% | inhibition at 1 µM ([3]; 1000 nM): -20% | inhibition at 0.01 µM ([4]; 10 nM): -12% | inhibition at 0.1 µM ([4]; 100 nM): 12% | inhibition at 1 µM ([4]; 1000 nM): 41% | inhibition at 0.01 µM ([5]; 10 nM): -17% | inhibition at 0.1 µM ([5]; 100 nM): -12% | inhibition at 1 µM ([5]; 1000 nM): 2% | inhibition at 0.01 µM ([6]; 10 nM): -10% | inhibition at 0.1 µM ([6]; 100 nM): -1% | inhibition at 1 µM ([6]; 1000 nM): 1% | inhibition at 0.01 µM ([7]; 10 nM): -5% | inhibition at 0.1 µM ([7]; 100 nM): 4% | inhibition at 1 µM ([7]; 1000 nM): 34% | inhibition at 0.01 µM ([8]; 10 nM): -2% | inhibition at 0.1 µM ([8]; 100 nM): 0% | inhibition at 1 µM ([8]; 1000 nM): -3%
